# Measurements: patent publication US20180170941A1 (priority 2016, published 2018)
# Columns and labels:
# aged-impaired (AI) rats [1] = assay: Morris water maze behavioral task, ICV infusion; format: in vivo, rat; settings: 100 μg ICV
# Description: Cognitively impaired aged rats were implanted unilaterally with a cannula into the lateral ventricle. Stereotaxic coordinates were 1.0 mm posterior to bregma, 1.5 mm lateral to midline, and 3.5 mm ventral to the skull surface. After about a week of recovery, the rats were pre-trained in a water maze for 2 days (6 trials per day) to locate a submerged escape platform hidden underneath the surface of the pool, in which the escape platform location varied from day to day. No intracerebroventricular (ICY) infusion was given during pre-training.
# After pre-training, rats received ICV infusion of either 100 μg 6,6 dimethyl-3-(3-hydroxypropypthio-1-(thiazol-2-yl)-6,7-dihydro-2-benzothiophen-4(5H)-one (n=6) in 5 μl DMSO or vehicle DMSO (n=5) 40 min prior to water maze training and testing. Training consisted of 8 trials per day for 2 days where the hidden escape platform remained in the same location. Rats were given 60 seconds to locate the platform with a 60 seconds inter-trial interval. The rats were given a probe test (120 seconds) 24 hr. after the end of training where the escape platform was removed. During the training, there were 4 blocks, where each block had 4 training trials.
# During a test trial 24 hr. after training, the escape platform was removed. The search/swim pattern of the rats was used to measure whether the rats remember where the escape platform was located during pre-trial training in order to test for the long-term memory of the rats. In this trial, “target annulus” is a designated area 1.5 times the size of the escape platform around the area where the platform was located during pre-trial training. “Opposite annulus” is a control area of the same size as the size of the target annulus, which is located opposite to the target annulus in the pool. If the rats had good long term memory, they would tend to search in the area surrounding the location where the platform was during the pre-trial training (i.e., the “target” annulus; and not the “opposite” annulus). “Time in annulus” is the amount of time in seconds that the rat spent in the target or opposite annulus area. “Number (#) of crossings” in annulus is the number of times the rat swam across the target or opposite annulus area.
# MAM-treated rats = settings: cited from earlier work
# GABAA α5 receptor = biological target: T1, GABAA α5 receptor (Rattus norvegicus, UniProt P18508+P19969); assay: GABAA α5 receptor occupancy with Ro 15-4513 tracer, hippocampus vs cerebellum; format: in vivo, Long Evans rats; settings: for Ro 15-4513 binding in hippocampus / cerebellum levels (binding) of Ro 15-4513: 0.01-10 mg/kg
# T1 construct: from tissue
# Procedure: Food and water were available ad libitum.
# The (100 μl) supernatant solution was diluted by […] of sterile water (pH 6.5).
# aged-impaired (AI) rats [2] = assay: Radial Arm Maze (RAM) behavioral task, spatial memory retention; format: in vivo, rat
# Procedure: The effects of methyl 3,5-diphenylpyridazine-4-carboxylate on the in vivo spatial memory retention of aged-impaired (AI) rats were assessed in a Radial Arm Maze (RAM) behavioral task using vehicle control and four different dosage levels of methyl 3,5-diphenylpyridazine-4-carboxylate (0.1 mg/kg, 0.3 mg/kg, 1 mg/kg and 3 mg/kg, ip). RAM behavioral tasks were performed on eight AI rats. All five treatment conditions (vehicle and four dosage levels) were tested on all eight rats.
# The RAM apparatus used consisted of eight equidistantly-spaced arms. An elevated maze arm (7 cm width×75 cm length) projected from each facet of an octagonal center platform (30 cm diameter, 51.5 cm height). Clear side walls on the arms were 10 cm high and were angled at 65° to form a trough. A food well (4 cm diameter, 2 cm deep) was located at the distal end of each arm. Froot Loops™ (Kellogg Company) were used as rewards. Blocks constructed of Plexiglas™ (30 cm height×12 cm width) could be positioned to prevent entry to any arm. Numerous extra maze cues surrounding the apparatus were also provided.
# The AI rats were initially subjected to a pre-training test (Chappell et al. Neuropharmacology 37: 481-487, 1998). […]
# [3] = i.v., listed as Methyl 3,5-diphenylpyridazine-4-carboxylate
# T1 sequence (P19969 32-464 limits assumed): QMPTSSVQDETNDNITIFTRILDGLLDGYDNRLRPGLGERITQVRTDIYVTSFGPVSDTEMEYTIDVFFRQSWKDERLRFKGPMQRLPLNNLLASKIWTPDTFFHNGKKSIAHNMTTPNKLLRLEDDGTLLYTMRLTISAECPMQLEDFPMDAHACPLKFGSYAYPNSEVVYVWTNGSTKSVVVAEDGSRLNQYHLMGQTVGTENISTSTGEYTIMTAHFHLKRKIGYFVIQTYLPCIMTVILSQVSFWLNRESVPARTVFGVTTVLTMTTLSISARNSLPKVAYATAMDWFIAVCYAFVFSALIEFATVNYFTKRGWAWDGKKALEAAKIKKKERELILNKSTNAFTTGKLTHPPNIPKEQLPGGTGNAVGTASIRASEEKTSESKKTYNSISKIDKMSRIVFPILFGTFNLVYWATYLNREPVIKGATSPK
# T1 sequence (P18508 39-466): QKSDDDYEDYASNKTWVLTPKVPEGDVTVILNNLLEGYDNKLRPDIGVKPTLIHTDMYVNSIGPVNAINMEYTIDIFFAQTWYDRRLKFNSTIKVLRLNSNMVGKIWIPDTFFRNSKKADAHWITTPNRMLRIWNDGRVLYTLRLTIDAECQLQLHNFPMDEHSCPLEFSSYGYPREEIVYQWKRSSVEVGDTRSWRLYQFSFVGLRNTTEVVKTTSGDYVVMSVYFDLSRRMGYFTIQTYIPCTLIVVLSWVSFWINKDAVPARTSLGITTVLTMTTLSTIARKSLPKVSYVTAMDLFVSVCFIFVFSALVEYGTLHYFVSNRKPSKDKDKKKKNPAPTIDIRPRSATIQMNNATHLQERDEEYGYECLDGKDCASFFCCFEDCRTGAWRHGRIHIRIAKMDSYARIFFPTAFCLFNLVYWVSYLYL
structure (smiles),measurement,setting,value
"CC1(C)CC(=O)c2c(SCCCO)sc(-c3nccs3)c2C1 [6,6 dimethyl-3-(3-hydroxypropyl)thio-1-(thiazol-2-yl)-6,7-dihydro-2-benzothiophen-4(5H)-one]","time to find the escape platform, block 1 (beginning of training)",aged-impaired (AI) rats [1],about 24 seconds
same,"time to find the escape platform, block 4 (end of training)",aged-impaired (AI) rats [1],about 9.6 seconds
same,"number of crossings of target annulus compared with opposite annulus, probe test",aged-impaired (AI) rats [1]; 24 hr. after training,more often
same,"time in target annulus compared with opposite annulus, probe test",aged-impaired (AI) rats [1]; 24 hr. after training,significantly more time
C#Cc1ccc2c(c1)C(c1ccccc1F)=N[C@H](C)c1c(C(=O)OCC)ncn1-2 [SH-053-2′F-R—CH3],increased locomotor response to amphetamine in MAM-treated rats,"MAM-treated rats; rat, in vivo",reduced
same,number of spontaneously active DA neurons in the ventral tegmental area (VTA) of MAM rats,MAM-treated rats; systemic or infused into the ventral HPC,to levels observed in saline-treated rats
"CCOC(=O)c1ncn2c1Cn1c(C)nnc1-c1cc(OC)ccc1-2 [ethyl 3-methoxy-7-methyl-9H-benzo[f]imidazo[1,5-a][1,2,4]tri]",Ro 15-4513 binding in hippocampus,GABAA α5 receptor; i.v.,reduced
same,cerebellum levels (binding) of Ro 15-4513,GABAA α5 receptor; i.v.,without affecting
same,memory performance relative to vehicle control,"aged-impaired (AI) rats [2]; 3 mg/kg, four-hour delay, p=0.004 or p=0.018",significantly improved memory performance
"COC(=O)c1c(-c2ccccc2)cnnc1-c1ccccc1 [methyl 3,5-diphenylpyridazine-4-carboxylate]",Ro 15-4513 binding in hippocampus,GABAA α5 receptor; i.v.,blocked
same,cerebellum levels (binding) of Ro 15-4513,GABAA α5 receptor; i.v.,did not affect
same,Ro 15-4513 binding in hippocampus,GABAA α5 receptor; [3],dose-dependently reduced
same,cerebellum levels (binding) of Ro 15-4513,GABAA α5 receptor; [3],without affecting
same,RO required for cognitive efficacy in this model,"GABAA α5 receptor; from exposure in aged rats at 3 mg/kg, i.p.",30-40%
same,GABAA α5 receptors occupied at exposures behaviorally active in aged-impaired rats,GABAA α5 receptor; hippocampus exposure-occupancy relationship (FIG. 4),about 32%
same,"ED50 of receptor occupancy, ratio method",GABAA α5 receptor; i.v.,1.8 mg/kg
same,memory performance relative to vehicle control,"aged-impaired (AI) rats [2]; 3 mg/kg ip, two-hour delay, t(7)=4.233, p=0.004",significantly improved memory performance
